Source: patent publication US20220389003A1, “4-SUBSTITUTED INDOLE AND INDAZOLE SULFONAMIDO DERIVATIVES AS PARG INHIBITORS” (IDEAYA BIOSCIENCES, INC., priority 2019, published 2022)
Like-named read-outs stand apart in the source and are kept apart here.

Legend:
PARG [1] = target: T1, PARG (Homo sapiens, UniProt Q86W56); assay: Inhibition of PARG cellular assay (PAR foci in HeLa cells after MMS); assay type: cell-based; set-up: endogenous in cells; host or cells: HeLa; details: compound 1 h then MMS 1 h
Summary of the method: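 HeLa cells pretreated with compound for 1 h, then given MMS for a further 1 h, fixed and immunostained for PAR polymer. High-content imaging quantified nuclear PAR foci intensity (PAR Foci IC50) and percent cells with foci signal >1.3 (PAR % positive IC50).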

[2] = system: HCC1806-XRCC1 KD (knock down) cells; assay: Cellular viability assay (Cell Titer-Glo); assay type: cell-based; details: HCC1806-shXRCC1 cells, 4 days of incubation, read-out: PARGi cell viability
Summary of the method: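 XRCC1-knockdown HCC1806 cells seeded 24 h before dosing; 9-point 1:3 dilution from 30 μM top concentration, duplicates, 4-day incubation. Viability by CellTiter-Glo luminescence, normalized to DMSO wells as % of control; curves fit with 4-parameter inhibition model.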

PARG [3] = target: T1, PARG; assay: Inhibition of PARG enzymatic assay (TR-FRET enzymatic IC50 assay); assay type: biochemical; set-up: purchased Peak Proteins; details: hPARG 250 pM, biotinylated-PARylated PARP substrate 30 nM
Summary of the method: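 Compound preincubated 1 h with 250 pM His-tagged hPARG, then 30 nM biotinylated PARylated hPARP1 substrate added for 10 min; buffer 50 mM Tris-HCl pH 7.4, EDTA/EGTA, 1 mM DTT, 23° C. TR-FRET read after 1 h with anti-His ULight antibody and streptavidin-europium; inhibition scaled between DMSO and no-enzyme controls.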

T1 sequence (Q86W56 whole entry): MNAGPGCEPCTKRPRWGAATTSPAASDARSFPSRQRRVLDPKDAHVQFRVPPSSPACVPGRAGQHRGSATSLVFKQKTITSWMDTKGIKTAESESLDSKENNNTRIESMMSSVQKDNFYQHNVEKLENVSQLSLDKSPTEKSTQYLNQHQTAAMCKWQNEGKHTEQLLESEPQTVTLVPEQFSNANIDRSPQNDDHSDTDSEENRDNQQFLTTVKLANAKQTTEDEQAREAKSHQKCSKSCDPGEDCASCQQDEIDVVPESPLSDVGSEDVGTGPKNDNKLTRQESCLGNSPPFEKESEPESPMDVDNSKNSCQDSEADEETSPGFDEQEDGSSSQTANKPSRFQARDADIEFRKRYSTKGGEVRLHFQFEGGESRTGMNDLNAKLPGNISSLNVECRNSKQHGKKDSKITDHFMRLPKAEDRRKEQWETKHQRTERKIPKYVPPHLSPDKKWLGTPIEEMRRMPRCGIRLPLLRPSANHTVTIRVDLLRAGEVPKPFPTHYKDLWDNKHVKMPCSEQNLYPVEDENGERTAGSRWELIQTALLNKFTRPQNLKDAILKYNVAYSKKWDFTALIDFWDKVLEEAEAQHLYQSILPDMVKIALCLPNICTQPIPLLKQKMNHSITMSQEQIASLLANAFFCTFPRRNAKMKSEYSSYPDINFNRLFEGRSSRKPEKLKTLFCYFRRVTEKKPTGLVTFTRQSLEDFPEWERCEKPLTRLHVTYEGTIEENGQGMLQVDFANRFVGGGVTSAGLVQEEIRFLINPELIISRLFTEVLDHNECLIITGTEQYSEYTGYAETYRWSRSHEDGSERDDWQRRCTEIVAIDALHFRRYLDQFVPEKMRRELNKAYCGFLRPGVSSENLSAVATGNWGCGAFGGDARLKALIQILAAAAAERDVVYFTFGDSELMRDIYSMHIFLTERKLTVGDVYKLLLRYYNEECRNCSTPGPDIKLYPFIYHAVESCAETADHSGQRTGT

IC50 (PARG [1]) | IC50 ([2]; 96 h) | IC50 (PARG [3]) | IC50 [2] | Compound
300 to 1000 nM | 1000 to 10000 nM | ≤ 100 nM |  | N#CC1(NS(=O)(=O)c2cc(-c3ccncn3)c3cnn(-c4nnc(C(F)F)s4)c3c2)CC1 [Example 15, 1-[({1-[5-(difluoromethyl)(1,3,4-thiadiazol-2-yl)]-4-pyrimidin-4-yl-1H-indazol-6-yl}sulfonyl)amino]cyclopropanecarbonitrile]
≤ 100 nM | < 1000 nM | ≤ 100 nM |  | C[C@@H]1CN(c2cc(S(=O)(=O)NC3(C#N)CC3)cc3c2cnn3-c2nnc(C(F)F)s2)CCN1C(=O)N(C)C [Example 35, [(2R)-4-(1-[5-(difluoromethyl)(1,3,4-thiadiazol-2-yl)]-6-{[(cyanocyclopropyl)amino]sulfonyl}(1H-indazol-4-yl))-2-methylpiperazinyl]-N,N-dimethylcarboxamide]
≤ 100 nM | 1000 to 10000 nM | ≤ 100 nM |  | N#CC1(NS(=O)(=O)c2cc(N3CCN(C(=O)C4CC4)CC3)c3cnn(-c4nnc(C(F)F)s4)c3c2)CC1 [Example 80, 1-[({1-[5-(difluoromethyl)(1,3,4-thiadiazol-2-yl)]-4-[4-(cyclopropylcarbonyl)piperazinyl]-1H-indazol-6-yl}sulfonyl)amino]cyclopropanecarbonitrile]
≤ 100 nM | < 1000 nM | ≤ 100 nM |  | CC(C)(C)C(=O)N1CCN(c2cc(S(=O)(=O)NC3(C#N)CC3)cc3c2cnn3-c2nnc(C(F)F)s2)CC1 [Example 39, 1-[({1-[5-(difluoromethyl)(1,3,4-thiadiazol-2-yl)]-4-[4-(2,2-dimethylpropanoyl)piperazinyl]-1H-indazol-6-yl}sulfonyl)amino]cyclopropanecarbonitrile]
100 to 300 nM | 1000 to 10000 nM | 100 to 300 nM |  | C[C@H]1CN(c2cc(S(=O)(=O)NC3(C#N)CC3)cc3c2cnn3-c2nnc(C(F)F)s2)CCO1 [Example 103, (S)—N-(1-cyanocyclopropyl)-1-(5-(difluoromethyl)-1,3,4-thiadiazol-2-yl)-4-(2-methylmorpholino)-1H-indazole-6-sulfonamide]
100 to 300 nM | 1000 to 10000 nM | ≤ 100 nM |  | N#CC1(NS(=O)(=O)c2cc(N3CCN4C(=O)CC[C@@H]4C3)c3cnn(-c4nnc(C(F)F)s4)c3c2)CC1 [Example 60, 1-[({4-((1R)-7-oxo-3,6-diazabicyclo[4.3.0]non-3-yl)-1-[5-(difluoromethyl)(1,3,4-thiadiazol-2-yl)]-1H-indazol-6-yl}sulfonyl)amino]cyclopropanecarbonitrile]
1000 to 10000 nM | 1000 to 10000 nM | 100 to 300 nM |  | CC(C)C(=O)N1CCN(c2cc(S(=O)(=O)NC(C)(C)C)cc3c2cnn3-c2nnc(C(F)F)s2)CC1 [Example 99, 1-[4-(1-[5-(difluoromethyl)(1,3,4-thiadiazol-2-yl)]-6-{[(tert-butyl)amino]sulfonyl}(1H-indazol-4-yl))piperazinyl]-2-methylpropan-1-one]
300 to 1000 nM | 1000 to 10000 nM | 100 to 300 nM |  | COc1nccc(-c2cc(S(=O)(=O)NC3(C#N)CC3)cc3c2cnn3-c2nnc(C(F)F)s2)n1 [Example 21, 1-[({1-[5-(difluoromethyl)(1,3,4-thiadiazol-2-yl)]-4-(2-methoxypyrimidin-4-yl)-1H-indazol-6-yl}sulfonyl)amino]cyclopropanecarbonitrile]
≤ 100 nM | < 1000 nM | ≤ 100 nM |  | CN(C)C(=O)N1CCN(c2cc(S(=O)(=O)NC3(C)CC3)cc3c2cnn3-c2nnc(C(F)F)s2)CC1 [Example 24, [4-(1-[5-(difluoromethyl)(1,3,4-thiadiazol-2-yl)]-6-{[(methylcyclopropyl)amino]sulfonyl}(1H-indazol-4-yl))piperazinyl]-N,N-dimethylcarboxamide]
100 to 300 nM | 1000 to 10000 nM | ≤ 100 nM |  | CN1CC2CN(c3cc(S(=O)(=O)NC4(C#N)CC4)cc4c3cnn4-c3nnc(C(F)F)s3)CCN2C1=O (single isomer, unassigned) [Example 71, 1-[({4-(8-methyl-7-oxo-3,6,8-triazabicyclo[4.3.0]non-3-yl)-1-[5-(difluoromethyl)-(1,3,4-thiadiazol-2-yl)]-1H-indazol-6-yl}sulfonyl)amino]cyclopropane carbonitrile]
300 to 1000 nM | 1000 to 10000 nM | 100 to 300 nM |  | N#CC1(NS(=O)(=O)c2cc(N3C[C@H]4COC[C@H]4C3)c3cnn(-c4nnc(C(F)F)s4)c3c2)CC1 [Example 48, 1-[({4-((1S,5R)-7-oxa-3-azabicyclo[3.3.0]oct-3-yl)-1-[5-(difluoromethyl)(1,3,4-thiadiazol-2-yl)]-1H-indazol-6-yl}sulfonyl)amino]cyclopropanecarbonitrile]
300 to 1000 nM | 10000 to 20000 nM | 300 to 1000 nM |  | CN(C)C(=O)N1CCN(c2cc(S(=O)(=O)NC3(C#N)CC3)cc3c2c(Cl)nn3-c2nnc(C(F)F)s2)CC1 [Example 115, [4-(1-[5-(difluoromethyl)(1,3,4-thiadiazol-2-yl)]-3-chloro-6-{[(cyanocyclopropyl)-amino]sulfonyl}(1H-indazol-4-yl))piperazinyl]-N,N-dimethylcarboxamide]
100 to 300 nM |  | ≤ 100 nM | 1000 to 10000 nM | CN1CC2CN(c3cc(S(=O)(=O)NC4(C#N)CC4)cc4c3cnn4-c3nnc(C(F)F)s3)CCN2C1=O (single isomer, unassigned) [Example 72, 1-[({4-(8-methyl-7-oxo-3,6,8-triazabicyclo[4.3.0]non-3-yl)-1-[5-(difluoromethyl)-(1,3,4-thiadiazol-2-yl)]-1H-indazol-6-yl}sulfonyl)amino]cyclopropane carbonitrile]
≤ 100 nM | < 1000 nM | ≤ 100 nM |  | C[C@@H]1CN(c2cc(S(=O)(=O)NC3(C#N)CC3)cc3c2cnn3-c2nnc(C(F)F)s2)CCN1C(=O)C1(C)CC1 [Example 108, 1-{[(4-{(3R)-3-methyl-4-[(methylcyclopropyl)carbonyl]piperazinyl}-1-[5-(difluoro-methyl)(1,3,4-thiadiazol-2-yl)]-1H-indazol-6-yl)sulfonyl]amino}cyclopropane carbonitrile]
≤ 100 nM | 1000 to 10000 nM | ≤ 100 nM |  | CC(C)C(=O)N1CCN(c2cc(S(=O)(=O)NC3(C#N)CC3)cc3c2cnn3-c2nnc(C(F)F)s2)C[C@@H]1C [Example 88, 1-[({4-[(3S)-3-methyl-4-(2-methylpropanoyl)piperazinyl]-1-[5-(difluoromethyl) (1,3,4-thiadiazol-2-yl)]-1H-indazol-6-yl}sulfonyl)amino]cyclopropanecarbonitrile]
≤ 100 nM | < 1000 nM | ≤ 100 nM |  | CC(C)C(=O)N1CCN(c2cc(S(=O)(=O)NC3(C#N)CC3)cc3c2cnn3-c2nnc(C(F)F)s2)CC1 [Example 38, 1-[({1-[5-(difluoromethyl)(1,3,4-thiadiazol-2-yl)]-4-[4-(2-methylpropanoyl)piperazinyl]-1H-indazol-6-yl}sulfonyl)amino]cyclopropanecarbonitrile]
1000 to 10000 nM | 10000 to 20000 nM | ≤ 100 nM |  | CNC(=O)C1CCN(c2cc(S(=O)(=O)NC3(C#N)CC3)cc3c2cnn3-c2nnc(C(F)F)s2)CC1 [Example 40, [1-(1-[5-(difluoromethyl)(1,3,4-thiadiazol-2-yl)]-6-{[(cyanocyclopropyl)amino]sulfonyl}(1H-indazol-4-yl))(4-piperidyl)]-N-methylcarboxamide]
300 to 1000 nM | 20000 to 30000 nM | 100 to 300 nM |  | N#CC1(NS(=O)(=O)c2cc(N3CC4(COC4)C3)c3cnn(-c4nnc(C(F)F)s4)c3c2)CC1 [Example 45, 1-[({1-[5-(difluoromethyl)(1,3,4-thiadiazol-2-yl)]-4-(6-oxa-2-azaspiro[3.3]hept-2-yl)-1H-indazol-6-yl}sulfonyl)amino]cyclopropanecarbonitrile]
300 to 1000 nM | 10000 to 20000 nM | 1000 to 10000 nM |  | N#CC1(NS(=O)(=O)c2cc(N3CCC4(CC3)COC4)c3c(Cl)nn(-c4nnc(C(F)F)s4)c3c2)CC1 [Example 114, 1-[({1-[5-(difluoromethyl)(1,3,4-thiadiazol-2-yl)]-3-chloro-4-(2-oxa-7-azaspiro[3.5]non-7-yl)-1H-indazol-6-yl}sulfonyl)amino]cyclopropanecarbonitrile]
300 to 1000 nM | 1000 to 10000 nM | 100 to 300 nM |  | N#CC1(NS(=O)(=O)c2cc(N3CCOCC3)c3cnn(-c4nnc(C(F)F)s4)c3c2)CC1 [Example 100, 1-[({1-[5-(difluoromethyl)(1,3,4-thiadiazol-2-yl)]-4-morpholin-4-yl-1H-indazol-6-yl}sulfonyl)amino]cyclopropanecarbonitrile]

Compound | IC50 (PARG [1]) | IC50 ([2]; 96 h) | IC50 (PARG [3]) | IC50 [2]
CC(C)C(=O)N1C2CC1CN(c1cc(S(=O)(=O)NC3(C#N)CC3)cc3c1cnn3-c1nnc(C(F)F)s1)C2 [Example 91, 1-[({1-[5-(difluoromethyl)(1,3,4-thiadiazol-2-yl)]-4-[6-(2-methylpropanoyl)-3,6-diazabicyclo[3.1.1]hept-3-yl]-1H-indazol-6-yl}sulfonyl)amino]cyclopropanecarbonitrile] | 1000 to 10000 nM | 20000 to 30000 nM | 1000 to 10000 nM | 
